pEC50: −log10 of the molar value.
Key:
[1] = molecular target: T1, PPAR-γ receptor (Homo sapiens, UniProt P37231); test: biochemical; type: biochemical
T1 sequence (P37231 1-505): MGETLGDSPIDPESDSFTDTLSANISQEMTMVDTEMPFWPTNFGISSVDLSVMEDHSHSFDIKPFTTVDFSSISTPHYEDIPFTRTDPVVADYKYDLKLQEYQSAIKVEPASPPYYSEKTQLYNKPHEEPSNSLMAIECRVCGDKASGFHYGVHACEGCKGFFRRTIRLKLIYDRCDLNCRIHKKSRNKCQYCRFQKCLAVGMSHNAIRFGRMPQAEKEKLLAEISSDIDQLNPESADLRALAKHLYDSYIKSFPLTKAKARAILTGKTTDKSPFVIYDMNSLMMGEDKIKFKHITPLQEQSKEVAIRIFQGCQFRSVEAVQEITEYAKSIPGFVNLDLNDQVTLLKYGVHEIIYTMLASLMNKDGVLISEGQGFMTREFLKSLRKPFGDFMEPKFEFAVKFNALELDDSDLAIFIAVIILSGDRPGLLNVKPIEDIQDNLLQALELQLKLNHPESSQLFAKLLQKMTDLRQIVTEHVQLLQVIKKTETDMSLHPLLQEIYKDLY

[2] = molecular target: T2, PPAR-γ receptor (Homo sapiens, UniProt P37231); test: cell-based
T2 sequence (P37231 238-505 limits assumed): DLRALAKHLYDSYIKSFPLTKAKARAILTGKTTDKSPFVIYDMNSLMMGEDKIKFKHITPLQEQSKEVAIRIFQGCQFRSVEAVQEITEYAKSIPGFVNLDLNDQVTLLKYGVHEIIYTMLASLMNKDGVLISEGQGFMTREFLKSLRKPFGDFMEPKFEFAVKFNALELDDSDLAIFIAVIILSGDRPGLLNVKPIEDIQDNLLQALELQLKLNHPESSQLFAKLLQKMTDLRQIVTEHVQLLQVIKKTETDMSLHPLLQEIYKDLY
Source text: FIG. 14: Activity of a number of compounds of the invention at the PPAR-γ receptor in cell based system (GeneBlazer) versus rosglitazone control.

Compound | pEC50 [1] | pEC50 [2] | activity in initial dose-response curves ([1]; initial dose-response curves, statement follows the PPAR-γ cell free table)
Cc1c(C(=O)c2cccc3ccccc23)c2ccccc2n1CCNc1ccc(C(=O)O)c(O)c1 [DWIN1 (IX), 2-Hydroxy-4-{2-[2-methyl-3-(naphthalene-1-carbonyl)-indol-yl]-ethylamino}-benzoic acid] | 6.31 | 6.10 | –
Cc1c(C(=O)c2cccc3ccccc23)c2ccccc2n1CCNc1ccc(O)c(C(=O)O)c1 [DWIN2 (X), 2-Hydroxy-5-{2-[2-methyl-3-(naphthalene-1-carbonyl)-indol-1-yl]-ethylamino}-benzoic acid] | 6.45 | 5.98 | –
Cc1c(CCNc2ccc(C(=O)O)c(O)c2)c2ccccc2n1C(=O)c1cccc(Cl)c1Cl [DWIN8 (XII), 4-{2-[1-(2,3-Dichloro-benzoyl)-2-methyl-1H-indol-3-yl]-ethylamino}-2-hydroxy-benzoic acid] | – | – | not active
